Patent publication US20010044437A1, “Methods for reducing uric acid levels” (priority 2000, published 2001)

Tested on: serum uric acid
Assay: Serum uric acid during 28-day once-daily oral dosing, placebo-controlled study in 48 subjects (Example 34)
Format: in vivo, human
Protocol: In another study, 48 subjects were divided into four groups, A, B, C and D, and administered the noted amount of the compound of Example 3. Each group was composed of 12 subjects of whom 9 received the compound and 3 received placebo. The non-placebo members of group A received 50 mg of compound, administered orally once a day for 28 days as a single 50 mg tablet. The non-placebo members of group B received 200 mg of compound administered orally once a day for 28 days as a single 200 mg tablet. The non-placebo members of group C received 500 mg of compound administered orally once a day for 28 days as two 50 mg tablets and two 200 mg tablets. The non-placebo members of group D received 800 mg of compound administered orally once a day for 28 days as four 200 mg tablets. The 3 placebo members of each group, received an amount of placebo, as a tablet, equivalent to the amount of test compound—50 mg placebo for group A, 200 mg placebo for group B, 500 mg placebo for group C and 800 mg placebo for group D. Each subject received a single dose of either compound or placebo for 28 days. The subjects were confined at the clinical site beginning the day before dose administration until 72 hours after the final dose administration on Day 28 and returned for an outpatient visit on Day 35.
Uric acid levels were measured prior to beginning the study (screening), on the day immediately prior to commencement of the study (day-1), and then as noted in the table. Hours indicates the time since the last dose was administered. For example, Day 7, 0 hour indicates the time the serum uric acid level at the time the dose was administered and Day 7, 2 hour indicates the uric acid level two hours after the adminstration that day. Further, the Day 30, 60 hour level is the serum uric acid level measured 60 hours (on Day 30) after the last dose was administered on Day 28. The uric acid levels are presented in mg/dL as a mean of all subjects in each group.

Compound: O=C(O)Cn1cc(Cc2nc3c(F)c(F)cc(F)c3s2)c2ccccc21 [Example 3, 3-(4,5,7-Trifluorobenzothiazol-2-yl)methyl-indole-N-acetic Acid]
- Uric Acid Level (mean of all subjects in each group) (group B 200 mg orally once a day, Day 7 24 Hour): 2.70 mg/dL
- Uric Acid Level (mean of all subjects in each group) (group B 200 mg orally once a day, Day 14 0 Hour): 2.87 mg/dL
- Uric Acid Level (mean of all subjects in each group) (group C 500 mg orally once a day, Day 1 0 Hour): 5.16 mg/dL
- Uric Acid Level (mean of all subjects in each group) (group C 500 mg orally once a day, Day 1 0.5 Hour): 5.08 mg/dL
- Uric Acid Level (mean of all subjects in each group) (group C 500 mg orally once a day, Day 1 1 Hour): 4.81 mg/dL
- Uric Acid Level (mean of all subjects in each group) (group C 500 mg orally once a day, Day 1 2 Hour): 4.27 mg/dL
- Uric Acid Level (mean of all subjects in each group) (group C 500 mg orally once a day, Day 1 3 Hour): 3.84 mg/dL
- Uric Acid Level (mean of all subjects in each group) (group C 500 mg orally once a day, Day 1 4 Hour): 3.54 mg/dL
- Uric Acid Level (mean of all subjects in each group) (group C 500 mg orally once a day, Day 1 6 Hour): 3.30 mg/dL
- Uric Acid Level (mean of all subjects in each group) (group C 500 mg orally once a day, Day 1 8 Hour): 2.82 mg/dL
- Uric Acid Level (mean of all subjects in each group) (group C 500 mg orally once a day, Day 1 10 Hour): 2.59 mg/dL
- Uric Acid Level (mean of all subjects in each group) (group C 500 mg orally once a day, Day 1 12 Hour): 2.56 mg/dL
- Uric Acid Level (mean of all subjects in each group) (group C 500 mg orally once a day, Day 1 16 Hour): 2.36 mg/dL
- Uric Acid Level (mean of all subjects in each group) (group C 500 mg orally once a day, Day 1 24 Hour): 2.74 mg/dL
- Uric Acid Level (mean of all subjects in each group) (group C 500 mg orally once a day, Day 3): 2.21 mg/dL
- Uric Acid Level (mean of all subjects in each group) (group C 500 mg orally once a day, Day 7 0 Hour): 2.17 mg/dL
- Uric Acid Level (mean of all subjects in each group) (group C 500 mg orally once a day, Day 7 0.5 Hour): 2.21 mg/dL
- Uric Acid Level (mean of all subjects in each group) (group C 500 mg orally once a day, Day 7 1 Hour): 2.16 mg/dL
- Uric Acid Level (mean of all subjects in each group) (group C 500 mg orally once a day, Day 7 2 Hour): 2.04 mg/dL
- Uric Acid Level (mean of all subjects in each group) (group C 500 mg orally once a day, Day 7 3 Hour): 1.90 mg/dL
- Uric Acid Level (mean of all subjects in each group) (group C 500 mg orally once a day, Day 7 4 Hour): 1.88 mg/dL
- Uric Acid Level (mean of all subjects in each group) (group C 500 mg orally once a day, Day 7 6 Hour): 2.19 mg/dL
- Uric Acid Level (mean of all subjects in each group) (group C 500 mg orally once a day, Day 7 8 Hour): 2.10 mg/dL
- Uric Acid Level (mean of all subjects in each group) (group C 500 mg orally once a day, Day 7 10 Hour): 2.08 mg/dL
- Uric Acid Level (mean of all subjects in each group) (group C 500 mg orally once a day, Day 7 12 Hour): 1.92 mg/dL
- Uric Acid Level (mean of all subjects in each group) (group C 500 mg orally once a day, Day 7 16 Hour): 1.74 mg/dL
- Uric Acid Level (mean of all subjects in each group) (group C 500 mg orally once a day, Day 7 24 Hour): 2.23 mg/dL
- Uric Acid Level (mean of all subjects in each group) (group C 500 mg orally once a day, Day-1 (before dosing)): 5.10 mg/dL
- Uric Acid Level (mean of all subjects in each group) (group C 500 mg orally once a day, Screening (before dosing)): 5.28 mg/dL
- Uric Acid Level (mean of all subjects in each group) (group D 800 mg orally once a day, Day 1 0 Hour): 5.64 mg/dL
- Uric Acid Level (mean of all subjects in each group) (group D 800 mg orally once a day, Day 1 0.5 Hour): 5.57 mg/dL
- Uric Acid Level (mean of all subjects in each group) (group D 800 mg orally once a day, Day 1 1 Hour): 5.12 mg/dL
- Uric Acid Level (mean of all subjects in each group) (group D 800 mg orally once a day, Day 1 2 Hour): 4.46 mg/dL
- Uric Acid Level (mean of all subjects in each group) (group D 800 mg orally once a day, Day 1 3 Hour): 3.97 mg/dL
- Uric Acid Level (mean of all subjects in each group) (group D 800 mg orally once a day, Day 1 4 Hour): 3.66 mg/dL
- Uric Acid Level (mean of all subjects in each group) (group D 800 mg orally once a day, Day 1 6 Hour): 3.37 mg/dL
- Uric Acid Level (mean of all subjects in each group) (group D 800 mg orally once a day, Day 1 8 Hour): 2.81 mg/dL
- Uric Acid Level (mean of all subjects in each group) (group D 800 mg orally once a day, Day 1 10 Hour): 2.49 mg/dL
- Uric Acid Level (mean of all subjects in each group) (group D 800 mg orally once a day, Day 1 12 Hour): 2.42 mg/dL
- Uric Acid Level (mean of all subjects in each group) (group D 800 mg orally once a day, Day 1 16 Hour): 2.13 mg/dL
- Uric Acid Level (mean of all subjects in each group) (group D 800 mg orally once a day, Day 1 24 Hour): 2.64 mg/dL
- Uric Acid Level (mean of all subjects in each group) (group D 800 mg orally once a day, Day 3): 2.19 mg/dL
- Uric Acid Level (mean of all subjects in each group) (group D 800 mg orally once a day, Day 7 0 Hour): 2.18 mg/dL
- Uric Acid Level (mean of all subjects in each group) (group D 800 mg orally once a day, Day 7 0.5 Hour): 2.10 mg/dL
- Uric Acid Level (mean of all subjects in each group) (group D 800 mg orally once a day, Day 7 1 Hour): 2.07 mg/dL
- Uric Acid Level (mean of all subjects in each group) (group D 800 mg orally once a day, Day 7 2 Hour): 1.98 mg/dL
- Uric Acid Level (mean of all subjects in each group) (group D 800 mg orally once a day, Day 7 3 Hour): 1.90 mg/dL
- Uric Acid Level (mean of all subjects in each group) (group D 800 mg orally once a day, Day 7 4 Hour): 1.90 mg/dL
- Uric Acid Level (mean of all subjects in each group) (group D 800 mg orally once a day, Day 7 6 Hour): 2.23 mg/dL
- Uric Acid Level (mean of all subjects in each group) (group D 800 mg orally once a day, Day 7 8 Hour): 2.21 mg/dL
- Uric Acid Level (mean of all subjects in each group) (group D 800 mg orally once a day, Day 7 10 Hour): 2.20 mg/dL
- Uric Acid Level (mean of all subjects in each group) (group D 800 mg orally once a day, Day 7 12 Hour): 2.10 mg/dL
- Uric Acid Level (mean of all subjects in each group) (group D 800 mg orally once a day, Day 7 16 Hour): 1.78 mg/dL
- Uric Acid Level (mean of all subjects in each group) (group D 800 mg orally once a day, Day 7 24 Hour): 2.26 mg/dL
- Uric Acid Level (mean of all subjects in each group) (group D 800 mg orally once a day, Day-1 (before dosing)): 5.54 mg/dL
- Uric Acid Level (mean of all subjects in each group) (group D 800 mg orally once a day, Screening (before dosing)): 5.68 mg/dL
